The experiment relates to nitric oxide (NO) produced in mouse BV-2 microglia cells stimulated with LPS. Description: NO production inhibition in LPS-stimulated BV-2 microglia cells (Griess reagent). Format: cell-based. To be noted: LPS 200 ng/ml; for pIC50: mouse BV-2 microglia cells, 24 h, read-out: NO inhibitory activity (IC50 value). Here is the method: BV-2 microglia cells were cultured in a humidified 5% CO2 incubator at 37° C. using a Dulbecco's modified Eagle medium supplemented with 5% fetal bovine serum and 1% penicillin/streptomycin at 100 units/mL.
In all experiments, the number of cells was 2.5×10^5 cell/ml, the cells were first treated with each of Compounds of Examples 1 to 25 by concentration (2.5 to 200 μg/ml), and LPS was diluted in medium and used at a concentration of 200 ng/ml. A cytotoxicity test was performed using MTT assay, and the MTT assay was performed by performing NO assay and injecting 30 μl of MTT at a concentration of 0.5 mg/ml into the cells in a microplate. After reacting for 2 hours in the incubator, formazan crystals were dissolved in 100 μl of DMSO, and the absorbance was measured using a Vmax microplate reader (Tencan Co., Switzerland) with a wavelength of 540 nm. In order to quantitatively measure the production of nitric oxide (NO), mouse BV-2 microglia cells were prepared in a microplate (96 well), and added with LPS (200 ng/ml) and Compounds by concentration (2.5 to 200 μg/ml). The cells reacted in an incubator for 24 h, and 50 μl of the supernatant reacted with a Griess reagent (a mixed solution of 1% sulfanilamide, 0.1% N-(1-naphthyl)-ethylenediamine dihydrochloride, and 2.5% H3PO4), and then the absorbance was measured using a Vmax 96-well microplate spectrophotometer with a wavelength of 550 nm.
In order to analyze the anti-inflammatory efficacy of Compound of Example 1, the concentration inhibitory effect of nitric oxide (NO) produced in mouse BV-2 microglia cells stimulated with LPS (200 ng/ml), a neuroinflammatory factor, was confirmed.
The neuroinflammation inhibitory effects of Compounds of Examples 2 to 25 were confirmed.
In order to analyze the anti-inflammatory efficacy of Compound 26 of Chemical Formula 2, the concentration inhibitory effect of nitric oxide (NO) produced in mouse BV-2 microglia cells stimulated with LPS (200 ng/ml), a neuroinflammatory factor, was confirmed. Compound 26 of Chemical Formula 2 was purchased from Santa Cruz biotechnology (CAS 79127-35-8) and the experiment was performed. As a result of treating Compound of Chemical Formula 2 at […], it was confirmed that the amount of nitric oxide (NO) was reduced, as shown in FIG. 37A.
For orientation: Nitrite, measured by Griess reagent, commonly stands in for NO production.

pIC50: −log10 of the molar value.

From US20250034164A1, “NOVEL COMPOUND AND COMPOSITION FOR PREVENTING OR TREATING NEUROINFLAMMATORY BRAIN DISEASES COMPRISING SAME AS ACTIVE INGREDIENT” (KOREA INSTITUTE OF OCEAN SCIENCE & TECHNOLOGY, priority 2021, published 2025) come the findings set out here.

In the case of `NC(=O)C1=C[C@H]2[C@@H]3C=CC2(O)C(=O)O[C@@H]3O1` (stereo in doubt) [Compound 26, (1S,4aS,5R,7aS)-5-hydroxy-8-oxo-1,4a,5,7a-tetrahydro-1,5-(epoxymethano)cyclopenta[c]pyran-3-carboxamide], under “BV-2 cells, treated at 2.5 to 20 PM (FIG. 37A)”, the “amount of nitric oxide (NO)” value is on record as “reduced”.

As a reminder, the pIC50 is −log10 of the IC50, conventionally taken in molar units. For the molecule `CC(=O)OCC1=C[C@H]2[C@@H]3C=C[C@H]2C(=O)O[C@@H]3O1` [Compound 2, ((1S,4aS,5R,7aS)-8-oxo-1,4a,5,7a-tetrahydro-1,5-(epoxymethano)cyclopenta[c]pyran-3-yl)methyl acetate], the pIC50 was under 4.70.

In the case of `COCC1=C[C@H]2[C@@H]3C=C[C@H]2C(=O)O[C@@H]3O1` [Compound 3, (1S,4aS,5R,7aS)-3-(methoxymethyl)-1,4a,5,7a-tetrahydro-1,5-(epoxymethano)cyclopenta[c]pyran-8-one], the pIC50 was under 4.70.

With `O=C(O)C1=C[C@H]2[C@@H]3C=C[C@H]2C(=O)O[C@@H]3O1` [Compound 5, (1S,4aS,5R,7aS)-8-oxo-1,4a,5,7a-tetrahydro-1,5-(epoxymethano)cyclopenta[c]pyran-3-carboxylic acid], the pIC50 is under 4.70.

With `O=C(OCC1=C[C@H]2[C@@H]3C=C[C@H]2C(=O)O[C@@H]3O1)c1ccccc1` [Compound 7, ((1S,4aS,5R,7aS)-8-oxo-1,4a,5,7a-tetrahydro-1,5-(epoxymethano)cyclopenta[c]pyran-3-yl)methyl benzoate], the pIC50 is under 4.70.

Consider `C=CCCCCCCCCC(=O)OCC1=C[C@H]2[C@@H]3C=C[C@H]2C(=O)O[C@@H]3O1` [Compound 8, ((1S,4aS,5R,7aS)-8-oxo-1,4a,5,7a-tetrahydro-1,5-(epoxymethano)cyclopenta[c]pyran-3-yl)methylundec-10-enoate], for which the pIC50 was under 4.70.

`CCC(C)C(=O)OCC1=C[C@H]2[C@@H]3C=C[C@H]2C(=O)O[C@@H]3O1` (stereo partly drawn) [Compound 9, ((1S,4aS,5R,7aS)-8-oxo-1,4a,5,7a-tetrahydro-1,5-(epoxymethano)cyclopenta[c]pyran-3-yl)methyl 2-methyl butanoate]: the pIC50 was under 4.70.

Regarding `Cc1ccc(C(=O)OCC2=C[C@H]3[C@@H]4C=C[C@H]3C(=O)O[C@@H]4O2)cc1` [Compound 10, ((1S,4aS,5R,7aS)-8-oxo-1,4a,5,7a-tetrahydro-1,5-(epoxymethano)cyclopenta[c]pyran-3-yl)methyl 4-methyl benzoate], the pIC50 was under 4.70.

Consider `COc1ccc(C(=O)OCC2=C[C@H]3[C@@H]4C=C[C@H]3C(=O)O[C@@H]4O2)cc1` [Compound 11, ((1S,4aS,5R,7aS)-8-oxo-1,4a,5,7a-tetrahydro-1,5-(epoxymethano)cyclopenta[c]pyran-3-yl)methyl 4-methoxybenzoate], for which the pIC50 was under 4.70.

For the molecule `O=C(OCC1=C[C@H]2[C@@H]3C=C[C@H]2C(=O)O[C@@H]3O1)c1ccc(-c2ccccc2)cc1` [Compound 12, ((1S,4aS,5R,7aS)-8-oxo-1,4a,5,7a-tetrahydro-1,5-(epoxymethano)cyclopenta[c]pyran-3-yl)methyl [1,1′-biphenyl]-4-carboxylate], the pIC50 is under 4.70.

`O=C(OCC1=C[C@H]2[C@@H]3C=C[C@H]2C(=O)O[C@@H]3O1)c1ccc2ccccc2c1` [Compound 13, ((1S,4aS,5R,7aS)-8-oxo-1,4a,5,7a-tetrahydro-1,5-(epoxymethano)cyclopenta[c]pyran-3-yl)methyl 2-naphthoate]: the pIC50 is under 4.70.

As to `C#CC(=O)OCC1=C[C@H]2[C@@H]3C=C[C@H]2C(=O)O[C@@H]3O1` [Compound 14, ((1S,4aS,5R,7aS)-8-oxo-1,4a,5,7a-tetrahydro-1,5-(epoxymethano)cyclopenta[c]pyran-3-yl)methyl propiolate], the negative logarithm of the IC50 (pIC50) was 5.85.

For `C#CC/N=C/C1=C[C@H]2[C@@H]3C=C[C@H]2C(=O)O[C@@H]3O1` [Compound 15, (1S,4aS,5R,7aS)-3-((E)-(prop-2-yn-1-ylimino)methyl)-1,4a,5,7a-tetrahydro-1,5-(epoxymethano)cyclopenta[c]pyran-8-one], the pIC50 is 4.91.

Take `O=C(OCC1=C[C@H]2[C@@H]3C=C[C@H]2C(=O)O[C@@H]3O1)c1cccc2c1-c1ccccc1C2=O` [Compound 16, ((1S,4aS,5R,7aS)-8-oxo-1,4a,5,7a-tetrahydro-1,5-(epoxymethano)cyclopenta[c]pyran-3-yl)methyl 9-oxo-9H-fluorene-4-carboxylate]: the pIC50 was 5.42.

`O=C(OCC1=C[C@H]2[C@@H]3C=C[C@H]2C(=O)O[C@@H]3O1)c1cc2ccccc2o1` [Compound 17, ((1S,4aS,5R,7aS)-8-oxo-1,4a,5,7a-tetrahydro-1,5-(epoxymethano)cyclopenta[c]pyran-3-yl)methyl benzofuran-2-carboxylate]: the pIC50 was under 4.70.

Consider `O=C(OCC1=C[C@H]2[C@@H]3C=C[C@H]2C(=O)O[C@@H]3O1)c1ccc(F)cc1` [Compound 18, ((1S,4aS,5R,7aS)-8-oxo-1,4a,5,7a-tetrahydro-1,5-(epoxymethano)cyclopenta[c]pyran-3-yl)methyl 4-fluorobenzoate], for which the pIC50 was under 4.70.

`O=C(OCC1=C[C@H]2[C@@H]3C=C[C@H]2C(=O)O[C@@H]3O1)c1ccc(Cl)cc1` [Compound 19, ((1S,4aS,5R,7aS)-8-oxo-1,4a,5,7a-tetrahydro-1,5-(epoxymethano)cyclopenta[c]pyran-3-yl)methyl 4-chlorobenzoate]: the pIC50 is 4.84.

On to `O=C(OCC1=C[C@H]2[C@@H]3C=C[C@H]2C(=O)O[C@@H]3O1)c1ccc(I)cc1` [Compound 20, ((1S,4aS,5R,7aS)-8-oxo-1,4a,5,7a-tetrahydro-1,5-(epoxymethano)cyclopenta[c]pyran-3-yl)methyl 4-iodobenzoate], for which the pIC50 is under 4.70.

Consider `O=C(OCC1=C[C@H]2[C@@H]3C=C[C@H]2C(=O)O[C@@H]3O1)c1ccc([N+](=O)[O-])cc1` [Compound 21, ((1S,4aS,5R,7aS)-8-oxo-1,4a,5,7a-tetrahydro-1,5-(epoxymethano)cyclopenta[c]pyran-3-yl)methyl 4-nitrobenzoate], for which the pIC50 was under 4.70.

As to `O=C1O[C@@H]2OC(CI)=C[C@H]3[C@@H]2C=C[C@@H]13` [Compound 22, (1S,4aS,5R,7aS)-3-(iodomethyl)-1,4a,5,7a-tetrahydro-1,5-(epoxymethano)cyclopenta[c]pyran-8-one], the pIC50 is under 4.70.

With `O=C1O[C@@H]2OC(CBr)=C[C@H]3[C@@H]2C=C[C@@H]13` [Compound 23, (1S,4aS,5R,7aS)-3-(bromomethyl)-1,4a,5,7a-tetrahydro-1,5-(epoxymethano)cyclopenta[c]pyran-8-one], the pIC50 was under 4.70.

For the molecule `O=C1O[C@@H]2OC(CO)=C(Br)[C@H]3[C@@H]2C=C[C@@H]13` [Compound 24, (1S,4aS,5R,7aS)-4-bromo-3-(hydroxymethyl)-1,4a,5,7a-tetrahydro-1,5-(epoxymethano)cyclopenta[c]pyran-8-one], the pIC50 is over 4.70.

Regarding `O=C1O[C@@H]2OC(CCl)=C[C@H]3[C@@H]2C=C[C@@H]13` [Compound 25, (1S,4aS,5R,7aS)-3-(chloromethyl)-1,4a,5,7a-tetrahydro-1,5-(epoxymethano)cyclopenta[c]pyran-8-one], the pIC50 was under 4.70.
